Each structure is given as a SMILES string.

Chain of human plasma kallikrein (P03952 391-638): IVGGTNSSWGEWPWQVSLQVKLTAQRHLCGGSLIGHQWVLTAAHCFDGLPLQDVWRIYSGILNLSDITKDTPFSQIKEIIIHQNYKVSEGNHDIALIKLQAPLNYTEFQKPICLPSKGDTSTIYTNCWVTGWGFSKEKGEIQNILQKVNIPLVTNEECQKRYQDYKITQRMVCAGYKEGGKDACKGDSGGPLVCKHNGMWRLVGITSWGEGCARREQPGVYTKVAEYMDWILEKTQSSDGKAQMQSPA
Chain of human plasma kallikrein (P03952 20-390 partner): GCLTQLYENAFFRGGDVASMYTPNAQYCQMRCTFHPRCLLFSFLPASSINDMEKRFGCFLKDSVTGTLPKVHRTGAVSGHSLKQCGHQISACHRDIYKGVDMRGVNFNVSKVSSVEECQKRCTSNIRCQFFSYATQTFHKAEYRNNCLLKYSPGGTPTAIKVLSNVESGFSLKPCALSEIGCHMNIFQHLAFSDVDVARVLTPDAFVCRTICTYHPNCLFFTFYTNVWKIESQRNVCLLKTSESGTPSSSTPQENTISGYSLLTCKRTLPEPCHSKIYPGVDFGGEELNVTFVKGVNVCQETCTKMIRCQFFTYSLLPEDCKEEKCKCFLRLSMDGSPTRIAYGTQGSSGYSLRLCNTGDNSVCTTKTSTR

This assay has as its target human plasma kallikrein (Homo sapiens (Human), UniProt P03952). The experiment in a line: Plasma Kallikrein Activity Assay (chromogenic substrate S2302). The format is biochemical. As to conditions: 2 nM kallikrein, 80 μM S2302, 30° C., pH 7.8; Cheng-Prusoff. Here is the method:
Plasma Kallikrein Activity Assay.
The effect of compounds of the invention on human plasma kallikrein activity was determined using the chromogenic substrates (DiaPharma Group, Inc., West Chester, Ohio, USA). In these experiments, 2 nM kallikrein (Enzyme Research Laboratories, South Bend, Ind., USA) was incubated with 80 μM S2302 (H-D-Pro-Phe-Arg-p-nitroaniline) in the absence or presence of increasing concentrations of compounds of the invention in a final volume of 200 μL Tris-HCl buffer (200 mM NaCl; 2.5 mM CaCl2; 50 mM Tris-HCl, pH 7.8).
After incubation at 30° C., the activity of kallikrein was measured as a change in absorbance at OD 405 nm using BioTek PowerWave X340 Microplate Reader (Winooski, Vt., USA). Data were analyzed using SigmaPlot software (Systat Software, Inc., San Jose, Calif., USA) (Four Parameter Logistic Curve). Ki values for the inhibitors were determined using the Cheng-Prusoff equation (Biochem. Pharmacol. 1973, 22, 3099).
In general, Ki refers to a dissociation constant, usually derived from enzyme kinetics or from competition with a known ligand. For `CO[C@@H]1C[C@H](C(=O)Nc2cc(C(CCC3CC3)(N[S@+]([O-])C(C)(C)C)c3cccc(C#N)c3)ccc2F)N(C(=O)Nc2ccc(Cl)cn2)C1` (some centres unmarked) [Compound 18a], the Ki is < 50 nM.
Then `CO[C@@H]1C[C@H](C(=O)Nc2cc(C(N)(CCC3CC3)c3ccncc3)ccc2F)N(C(=O)c2ccc3c(Cl)c[nH]c3c2)C1` (stereo partly drawn) [Compound 83a, (2R,4R)-N-(5-((+)-1-amino-3-cyclopropyl-1-(pyridin-4-yl)propyl)-2-fluorophenyl)-1-(3-chloro-1H-indole-6-carbonyl)-4-methoxypyrrolidine-2-carboxamide], with > 100 nM; and `CCNC(CCC1CC1)(c1ccncc1)c1ccc(F)c(NC(=O)[C@H]2C[C@@H](OC)CN2C(=O)Nc2ccc(Cl)cn2)c1` (stereo partly drawn) [Compound 77a, (2R,4R)-N1-(5-chloropyridin-2-yl)-N2-(5-((+)-3-cyclopropyl-1-(ethylamino)-1-(pyridin-4-yl)propyl)-2-fluorophenyl)-4-methoxypyrrolidine-1,2-dicarboxamide], with < 50 nM.
To `CO[C@@H]1C[C@H](C(=O)Nc2cc(C(CCC3CC3)(NC(C)=O)c3ccncc3)ccc2F)N(C(=O)Nc2ccc(Cl)cn2)C1` (stereo partly drawn) [Compound 73a, (2R,4R)-N2-(5-((+)-1-acetamido-3-cyclopropyl-1-(pyridin-4-yl)propyl)-2-fluorophenyl)-N1-(5-chloropyridin-2-yl)-4-methoxypyrrolidine-1,2-dicarboxamide] belongs < 50 nM.
To `CO[C@@H]1C[C@H](C(=O)Nc2cc(C(N)(CCC3CC3)c3cccc(C#N)c3)ccc2F)N(C(=O)Nc2ccc(C#N)cc2)C1` (stereo partly drawn) [Compound 15f, (2R,4R)-N2-(5-((+)-1-amino-1-(3-cyanophenyl)-3-cyclopropylpropyl)-2-fluorophenyl)-N1-(4-cyanophenyl)-4-methoxypyrrolidine-1,2-dicarboxamide] belongs > 100 nM.
Take `CC(C)(C)[S@@+]([O-])NC(CCC1CC1)(c1ccncc1)c1ccc(F)c(NC(=O)[C@H]2C[C@@H](O)CN2C(=O)Nc2ccc(Cl)cc2)c1` (stereo partly drawn) [Compound 68a, (2R,4R)-N1-(4-chlorophenyl)-N2-(5-(3-cyclopropyl-1-((R)-1,1-dimethylethylsulfinamido)-1-(pyridin-4-yl)propyl)-2-fluorophenyl)-4-hydroxypyrrolidine-1,2-dicarboxamide]: the Ki was < 50 nM.
Then `CC(C)(C)[S@@+]([O-])NC(CCC1CC1)(c1cccc(C#N)c1)c1ccc(F)c(NC(=O)[C@H]2C[C@@H](O)CN2C(=O)Nc2ccc(C(F)(F)F)cc2)c1` (stereo partly drawn) [Compound 27a, (2R,4R)-N2-(5-((+)-1-(3-cyanophenyl)-3-cyclopropyl-1-((R)-1,1-dimethylethylsulfinamido)propyl)-2-fluorophenyl)-4-hydroxy-N1-(4-(trifluoromethyl)phenyl)pyrrolidine-1,2-dicarboxamide], with > 100 nM; and `CNC(CCC1CC1)(c1ccnc(C)c1)c1ccc(F)c(NC(=O)[C@H]2C[C@@H](OC)CN2C(=O)Nc2ccc(Cl)cn2)c1` (stereo partly drawn) [Compound 79a, (2R,4R)-N1-(5-chloropyridin-2-yl)-N2-(5-((+)-3-cyclopropyl-1-(methylamino)-1-(2-methylpyridin-4-yl)propyl)-2-fluorophenyl)-4-methoxypyrrolidine-1,2-dicarboxamide], with < 50 nM; and `CCO[C@@H]1C[C@H](C(=O)Nc2cc(C(N)(CCC3CC3)c3ccncc3)ccc2F)N(C(=O)Nc2ccc(Cl)cn2)C1` (stereo partly drawn) [Compound 51b, (2R,4R)-N2-(5-((+)-1-amino-3-cyclopropyl-1-(pyridin-4-yl)propyl)-2-fluorophenyl)-N1-(5-chloropyridin-2-yl)-4-ethoxypyrrolidine-1,2-dicarboxamide], with < 50 nM.
To `C[C@H]1C[C@H](C(=O)Nc2cc(C(N)(CCC3CC3)c3ccncc3)ccc2F)N(C(=O)Nc2ccc(Cl)cn2)C1` (stereo partly drawn) [Compound 48d, (2R,4S)-N2-(5-((+)-1-amino-3-cyclopropyl-1-(pyridin-4-yl)propyl)-2-fluorophenyl)-N1-(5-chloropyridin-2-yl)-4-methylpyrrolidine-1,2-dicarboxamide] belongs < 50 nM; to `NC(CCC1CC1)(c1ccc(F)c(NC(=O)[C@H]2C[C@](O)(c3ccccc3)CN2C(=O)Nc2ccc(Cl)cn2)c1)c1ccccn1` (stereo partly drawn) [Compound 32a, (2R,4S)-N2-(5-((+)-1-amino-3-cyclopropyl-1-(pyridin-2-yl)propyl)-2-fluorophenyl)-N1-(5-chloropyridin-2-yl)-4-hydroxy-4-phenylpyrrolidine-1,2-dicarboxamide], < 50 nM.
On to `CCNC(CCC1CC1)(c1ccccc1)c1ccc(F)c(NC(=O)[C@H]2C[C@@H](OC)CN2C(=O)Nc2ccc(Cl)cn2)c1` (stereo partly drawn) [Compound 67b, (2R,4R)-N1-(5-chloropyridin-2-yl)-N2-(5-((+)-3-cyclopropyl-1-(ethylamino)-1-phenylpropyl)-2-fluorophenyl)-4-methoxypyrrolidine-1,2-dicarboxamide], for which the Ki is > 100 nM.
To `N#Cc1cccc(C(N)(CCC2CC2)c2ccc(F)c(NC(=O)[C@H]3C[C@](O)(c4ccccc4)CN3C(=O)Nc3ccc(Cl)cn3)c2)c1` (stereo partly drawn) [Compound 29e, (2R,4S)-N2-(5-((+)-1-amino-1-(3-cyanophenyl)-3-cyclopropylpropyl)-2-fluorophenyl)-N1-(5-chloropyridin-2-yl)-4-hydroxy-4-phenylpyrrolidine-1,2-dicarboxamide] belongs < 50 nM; to `NC(CCC1CC1)(c1ccncc1)c1ccc(F)c(NC(=O)[C@H]2C[C@H](c3ccccc3)CN2C(=O)Nc2ccc(Cl)cn2)c1` (stereo partly drawn) [Compound 47d, (2R,4R)-N2-(5-((+)-1-amino-3-cyclopropyl-1-(pyridin-4-yl)propyl)-2-fluorophenyl)-N1-(5-chloropyridin-2-yl)-4-phenylpyrrolidine-1,2-dicarboxamide], 50 to 100 nM; to `N#Cc1cccc(C(N)(CCC2CC2)c2ccc(F)c(NC(=O)[C@@H]3CCCN3C(=O)Nc3ccc(Cl)cc3)c2)c1` (stereo partly drawn) [Compound 8c, (S)-N2-(5-((−)-1-amino-1-(3-cyanophenyl)-3-cyclopropylpropyl)-2-fluorophenyl)-N1-(4-chlorophenyl)pyrrolidine-1,2-dicarboxamide], > 100 nM.
To `CO[C@@H]1C[C@H](C(=O)Nc2cc(C(CCC3CC3)N3CCCCC3=O)ccc2F)N(C(=O)Nc2ccc(Cl)cn2)C1` (stereo partly drawn) [Compound 44e, (2R,4R)-N1-(5-chloropyridin-2-yl)-N2-(5-((+)-3-cyclopropyl-1-(2-oxopiperidin-1-yl)propyl)-2-fluorophenyl)-4-methoxypyrrolidine-1,2-dicarboxamide] belongs > 100 nM; to `CO[C@@H]1C[C@H](C(=O)Nc2cc(C(CCC3CC3)(NS(C)(=O)=O)c3ccncc3)ccc2F)N(C(=O)Nc2ccc(Cl)cn2)C1` (stereo partly drawn) [Compound 74a, (2R,4R)-N1-(5-chloropyridin-2-yl)-N2-(5-((+)-3-cyclopropyl-1-(methylsulfonamido)-1-(pyridin-4-yl)propyl)-2-fluorophenyl)-4-methoxypyrrolidine-1,2-dicarboxamide], < 50 nM.
To `N#Cc1cccc(C(N)(CCC2CC2)c2ccc(F)c(NC(=O)[C@H]3C[C@](O)(c4ccccc4)CN3C(=O)Nc3ccc(Cl)cc3)c2)c1` (stereo partly drawn) [Compound 30a, (2R,4S)-N2-(5-((+)-1-amino-1-(3-cyanophenyl)-3-cyclopropylpropyl)-2-fluorophenyl)-N1-(4-chlorophenyl)-4-hydroxy-4-phenylpyrrolidine-1,2-dicarboxamide] belongs < 50 nM; to `CO[C@]1(C(F)(F)F)C[C@H](C(=O)Nc2cc(C(N)(CCC3CC3)c3ccncc3)ccc2F)N(C(=O)Nc2ccc(Cl)cn2)C1` (stereo partly drawn) [Compound 57d, (2R,4R)-N2-(5-((+)-1-amino-3-cyclopropyl-1-(pyridin-4-yl)propyl)-2-fluorophenyl)-N1-(5-chloropyridin-2-yl)-4-methoxy-4-(trifluoromethyl)pyrrolidine-1,2-dicarboxamide], < 50 nM; to `N#Cc1ccc(C(N)(CCC2CC2)c2ccc(F)c(NC(=O)[C@H]3C[C@@H](O)CN3C(=O)Nc3ccc(Cl)cc3)c2)cc1` (stereo partly drawn) [Compound 63g, (2R,4R)-N2-(5-((+)-1-amino-1-(4-cyanophenyl)-3-cyclopropylpropyl)-2-fluorophenyl)-N1-(4-chlorophenyl)-4-hydroxypyrrolidine-1,2-dicarboxamide], 50 to 100 nM.
As to `CC(C)(C)[S@@+]([O-])NC(CCC1CC1)(c1cccc(C#N)c1)c1ccc(F)c(NC(=O)[C@@H]2C[C@@H](O)CN2C(=O)Nc2ccc(Cl)cc2)c1` (stereo partly drawn) [Compound 5d, (2S,4R)-N1-(4-chlorophenyl)-N2-(5-((−)-1-(3-cyanophenyl)-3-cyclopropyl-1-((R)-1,1-dimethylethylsulfinamido)propyl)-2-fluorophenyl)-4-hydroxypyrrolidine-1,2-dicarboxamide], the inhibition constant (Ki) was > 100 nM.
To `CO[C@@H]1C[C@H](C(=O)Nc2cc(C(CCC3CC3)n3ccccc3=O)ccc2F)N(C(=O)Nc2ccc(Cl)cn2)C1` (stereo partly drawn) [Compound 43m, (2R,4R)-N1-(5-chloropyridin-2-yl)-N2-(5-((+)-3-cyclopropyl-1-(2-oxopyridin-1(2H)-yl)propyl)-2-fluorophenyl)-4-methoxypyrrolidine-1,2-dicarboxamide] belongs 50 to 100 nM.
To `CO[C@]1(c2ccccc2)C[C@H](C(=O)Nc2cc(C(CCC3CC3)(N[S@@+]([O-])C(C)(C)C)c3ccccn3)ccc2F)N(C(=O)OC(C)(C)C)C1` (stereo partly drawn) [Compound 34b, (2R,4S)-tert-butyl-2-(5-((+)-3-cyclopropyl-1-((S)-1,1-dimethylethylsulfinamido)-1-(pyridin-2-yl)propyl)-2-fluorophenylcarbamoyl)-4-methoxy-4-phenylpyrrolidine-1-carboxylate] belongs > 100 nM.

Values taken from patent publication US10562850B2, “Human plasma kallikrein inhibitors” (priority 2015, dated 2020).
